# Numbering of substitutions follows the chain as printed. Structures can show the parent of a compound that is named as a salt. Where two headings read alike, the source gives them in different places.
# Columns and labels:
# GCase = biological target: T1, GCase (Homo sapiens, UniProt P04062); test: GCase activity enhancement (EC50, Emax) of Table 2B; format: cell-based
# T1 sequence (P04062 40-536): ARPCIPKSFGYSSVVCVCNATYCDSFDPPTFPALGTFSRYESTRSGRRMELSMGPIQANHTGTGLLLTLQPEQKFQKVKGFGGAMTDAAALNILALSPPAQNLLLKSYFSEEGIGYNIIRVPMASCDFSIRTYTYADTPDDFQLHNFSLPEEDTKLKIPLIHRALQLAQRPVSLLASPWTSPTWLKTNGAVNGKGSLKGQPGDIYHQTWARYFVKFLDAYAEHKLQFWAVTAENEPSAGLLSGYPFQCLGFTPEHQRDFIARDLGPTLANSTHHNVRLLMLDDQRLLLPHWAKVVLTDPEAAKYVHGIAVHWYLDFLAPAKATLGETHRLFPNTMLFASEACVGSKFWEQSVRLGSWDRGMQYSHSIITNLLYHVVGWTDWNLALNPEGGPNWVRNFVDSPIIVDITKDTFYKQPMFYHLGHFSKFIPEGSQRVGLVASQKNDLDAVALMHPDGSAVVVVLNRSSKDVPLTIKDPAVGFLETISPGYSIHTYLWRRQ
# lysosomal GCase = biological target: T2, lysosomal GCase (Homo sapiens, UniProt P04062); test: In situ lysosomal GCase inhibition and washout in fibroblasts from a normal subject (PFBFDβGlu substrate); format: cell-based; settings: for in situ washout: after 16-24 hours at IC90, single exponential fit of activity recovery over 8 hours; for IC50: fibroblasts, compound 16-24 hours, substrate 1 hour
# T2 construct: fibroblasts established from a normal subject; endogenous in cells; host or cells: fibroblasts established from a normal subject
# T2 sequence (P04062 40-536): T1 sequence (P04062 40-536)
# Experimental: The effect of the novel compounds of the present invention on lysosomal GCase activity was assayed in situ using fibroblasts established from a normal subject. Cells seeded in 48-well plates were incubated with the indicated concentrations of compound for 16-24 hours. For the dose-response assays, cells were incubated with the in situ substrate 5-(pentafluorobenzoylamino)fluorescein di-β-D-glucopyranoside (PFBFDβGlu) for 1 hour and subsequently lysed to determine the extent of substrate hydrolysis in the presence of compound. […] Inhibition was determined as the ratio of activity in the presence of compound to that in the absence of compound. […] Cells were washed extensively and incubated in drug-free medium to allow net compound efflux from cells. Cells were then tested for lysosomal GCase activity at 2 hour intervals over a total period of 8 hours following compound removal. The increase in activity over time was fitted with a single exponential function to determine the compound's washout time.
# [1] = biological target: T3, recombinant human GCase (rhGCase; Cerezyme®) (Homo sapiens, UniProt P04062, R534H); test: In vitro enzyme inhibition assay (4-MU-β-D-Glc hydrolysis) for IC50 and Ki; format: biochemical; settings: for Ki: Cheng-Prusoff from IC50
# T3 construct: purchased Genzyme Corp
# T3 sequence (P04062 40-536 R534H): T1 sequence (P04062 40-536) with R495H
# Experimental: The binding affinity (defined here by Ki binding constant) of GCase for novel compounds of the present invention were empirically determined using enzyme inhibition assays. In brief, the enzyme inhibition assays used monitored the ability of a test compound to bind and prevent the hydrolysis of a fluorogenic substrate in a concentration-dependent manner. Specifically, the enzyme activity of recombinant human GCase (rhGCase; Cerezyme®, Genzyme Corp.) was measured using the 4-methylumbelliferyl-β-D-glucopyranoside (4-MU-β-D-Glc) fluorogenic substrate in the absence or in the presence of varying amounts of each test compound. […] The enzyme inhibition assays were performed at both pH 7.0 (endoplasmic reticulum pH) and at pH 5.2 (lysosomal pH) to gain insight into the binding affinity (i.e., potency) of compounds for GCase in the endoplasmic reticulum and lysososome.
# Various concentrations of test compounds were prepared in buffer “M” consisting of 50 mM sodium phosphate buffer with 0.25% sodium taurocholate at pH 7.0 and pH 5.2. Enzyme (Cerezyme®, a recombinant form of the human enzyme β-glucocerebrosidase) was also diluted in the same buffer “M” at pH 7.0 and pH 5.2. […] Five microliters of diluted enzyme was added to 15 μl of the various inhibitor concentrations or buffer “M” alone and incubated at 37° C. for 1 hour with 50 μl of the substrate preparation to assess β-glucosidase activity at pH 7.0 and pH 5.2. […] Fluorescence was measured on a plate reader for 1 sec/well using 355 nm excitation and 460 nm emission.
# [2] = pH 5.2 (lysosomal pH), read-out: Ki (μM) pH 5.2
# [3] = pH 5.2 (lysosomal pH), read-out: IC50 (μM) pH 5.2
# [4] = pH 7.0 (endoplasmic reticulum pH), read-out: Ki (μM) pH 7.0
# [5] = pH 7.0 (endoplasmic reticulum pH), read-out: IC50 (μM) pH 7.0
Compound,EC50 (GCase),Emax (%) (GCase),in situ washout (lysosomal GCase),IC50 (lysosomal GCase),"Ki [1, 2]","IC50 [1, 3]","Ki [1, 4]","IC50 [1, 5]",GCase activity enhancement compared to reference compound IFG-tartrate (GCase; same maximum level as IFG-tartrate at much lower concentration),inhibition of GCase activity (lysosomal GCase),Emax (GCase)
"C[C@@H](O)[C@H]1CNC[C@@H](O)[C@@H]1O [Compound 9, (3R,4R,5R)-5((R)-1-Hydroxyethyl)piperdine 3,4-diol]",0.49 ± 0.06 µM,83.7 ± 2.9%,10.5 ± 1.75 h,0.518 ± 0.022 µM,0.044 ± 0.0017 µM,0.107 ± 0.0041 µM,0.01 ± 0.0004 µM,0.02 ± 0.0008 µM,,,
"CC(O)[C@H]1CNC[C@@H](O)[C@@H]1O (single isomer, unassigned)",,,,,,,,,concentration-dependent increase in GCase activity,inhibited GCase activity,
"CC(C)(O)[C@H]1CNC[C@@H](O)[C@@H]1O [(3R,4R,5S)-5-(2-hydroxypropan-2-yl)piperidine-3,4-diol]",,,,,,,,,,,109 ± 3.6%
"CC(O)C1CNCC(O)C1O (single isomer, unassigned) [Compound 10]",,,12 ± 1.65 h,,,,,,,,99.3 ± 4.9%
"C[C@@H](F)[C@H]1CNC[C@@H](O)[C@@H]1O [Compound 14, (3R,4R,5R)-5((R)-(1-Fluoroethyl)piperdine 3,4-diol Hydrochloride]",0.026 ± 0.003 µM,,3.7 ± 0.63 h,0.061 ± 0.019 µM,0.016 ± 0.0007 µM,0.038 ± 0.0016 µM,0.004 ± 0.0001 µM,0.007 ± 0.0003 µM,,,89.7 ± 3.5%
"C[C@H](F)[C@H]1CNC[C@@H](O)[C@@H]1O [Compound 13, (3R,4R,5R)-5((S)-1-Fluoroethyl)piperdine 3,4-diol Hydrochloride]",0.044 ± 0.005 µM,,2.7 ± 0.12 h,0.65 ± 0.172 µM,0.0498 ± 0.0015 µM,0.0946 ± 0.0028 µM,0.009 ± 0.0004 µM,0.0171 ± 0.0008 µM,,,92.8 ± 6.6%
"O[C@@H]1[C@@H]([C@H](O)c2ccccc2)CNC[C@H]1O [(3R,4R,5R)-5-((S)-hydroxy(phenyl)methyl)-piperidine-3,4-diol]",,,,,,,,,,,72.1 ± 3.5%
